From paper PMC7076352 (Pharmaceutics, 2020)

What was measured:
in vivo = assay: in vivo; design: species or system Sprague-Dawley (SD) rats; conditions: Sprague-Dawley, plasma, rat
Experimental: At each time, 0.5 mL of blood was collected in the heparin sodium tubes. Plasma was separated by centrifugation at 4000 rpm for 10 min and stored below −80 °C until bioanalysis. Oasis PRiME HLB SPE cartridges (1 cc/30 mg, Waters, Milford, MA, USA) were used to process the plasma samples (Supplementary Materials).
The generic layout of instrumentation setup of the LVDI-UHPLC-MS/MS was conducted on a Shimadzu UHPLC system consisting of two LC-20ADXR pumps, a DGU-20A3R degasser, and a CBM-20A controller (Kyoto, Japan) with a SCIEX 4500 QTRAP mass spectrometer mounted with an electron spray ionization (ESI) interface as well as an electronic 6-port/2-channel valve (Foster City, CA, USA). Analyst software package (version 1.6.2, SCIEX) was implemented to control and synchronize the entire system, and also for data acquisition and processing. A single analytical run was fragmented into two phases, namely, loading and elution phases, by switching the electronic valve (Figure 2). At the loading phase, the valve was maintained at A-channel. The specimen aliquot of large volume delivered from the auto-sampler was captured onto a guard column. Meanwhile, the pumps were responsible for delivering the mobile phase at a high flow rate, aiming to dilute the sample solvent, thus facilitating the candidate constituents to concentrate on the pre-guard column. Then, the valve was automatically switched to the B-channel to trigger the elution phase. The trapped components were flushed from the pre-guard column into an analytical column, and underwent multiple reaction monitoring (MRM) analysis on the optimized LC gradients. The detailed information of LVDI-UHPLC-MS/MS analysis for pharmacokinetic and cocktail studies is shown in the Supplementary Materials section.

CYP1A2 = molecular target: T1, CYP1A2 (Rattus norvegicus, UniProt P04799); assay: In vitro cocktail CYP450 activity assay in rat liver microsomes, CYP1A2 (phenacetin probe)
T1 sequence (P04799 1-513): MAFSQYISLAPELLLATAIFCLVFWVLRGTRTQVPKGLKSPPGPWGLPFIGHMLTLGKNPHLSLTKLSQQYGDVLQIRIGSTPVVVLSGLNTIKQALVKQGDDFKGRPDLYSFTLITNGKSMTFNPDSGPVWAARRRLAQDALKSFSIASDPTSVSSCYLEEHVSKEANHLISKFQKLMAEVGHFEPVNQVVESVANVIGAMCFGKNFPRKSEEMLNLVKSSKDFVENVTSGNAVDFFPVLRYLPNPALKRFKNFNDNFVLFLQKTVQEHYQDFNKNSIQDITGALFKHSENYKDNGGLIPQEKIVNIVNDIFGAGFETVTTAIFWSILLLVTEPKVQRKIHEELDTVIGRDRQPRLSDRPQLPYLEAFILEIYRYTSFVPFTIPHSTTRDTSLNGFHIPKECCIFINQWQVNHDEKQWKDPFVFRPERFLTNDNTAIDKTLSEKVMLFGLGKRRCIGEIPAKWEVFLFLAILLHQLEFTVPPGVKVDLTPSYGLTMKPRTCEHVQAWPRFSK
Experimental: (§1) (OHBUP-[D6]) and 5 nM 4′-hydroxydiclofenac-[^13C6] (OHDIC-[^13C6]) as internal standards (ISs). […]
(§2) standard addition experiments. Each group included four concentration levels. For the PK […]
(§3) The probe compounds, viz. […]
(§4) chosen after incubating all the recruited substrates. In order to assure the linear relationship […]
(§5) The incubation system was also optimized in terms of substrate concentrations. The substrates concentrations of […]

CYP2E1 [1] = molecular target: T2, CYP2E1 (Rattus norvegicus, UniProt P05182); conditions: IC50 CYP2E1, single components; RLM 0.2 mg/mL, 15 min, triplicate, mean ± SD
Experimental: (§6) For the cocktail assay, the activity is expressed as the percentage of activity remaining comparing with that of a control sample containing no inhibitor. […] All the data were described as mean ± standard deviation (SD). Normality assumptions were tested by the Kolmogorov–Smirnov statistic setting p = 0.10 as the limit for rejection of the null hypothesis of normality. If the distribution of the data was normal with equal variances, a two-sided test was performed at the 5% level of significance. The Welch’s correction was then applied when the underlying variances were not equal. When the assumption of normality must be rejected, the Mann-Whitney test, a non-parametric equivalent of the independent-measures t-test, was used.

CYP2C19 = assay: In vitro cocktail CYP450 activity assay in rat liver microsomes, CYP2C19 (omeprazole probe)
Experimental: as §1, §2, §3, §4, §5

CYP2C9 = assay: In vitro cocktail CYP450 activity assay in rat liver microsomes, CYP2C9 (tolbutamide probe)
Experimental: as §1, §2, §3, §4, §5

CYP2B6 = assay: In vitro cocktail CYP450 activity assay in rat liver microsomes, CYP2B6 (bupropion probe); conditions: Sprague-Dawley, rat, pooled rat liver microsomes, pH 7.4, probe bupropion (90 µM, in seven-probe cocktail), IC50 CYP2B6, single components; RLM 0.2 mg/mL, 15 min, triplicate, mean ± SD
Experimental: as §1, §2, §3, §4, §5

CYP3A4 = assay: in vitro; conditions: Sprague-Dawley, rat, pH 7.4
Experimental: as §1, §2, §3, §4, §5

CYP2D6 = assay: in vitro; conditions: Sprague-Dawley, rat
Experimental: as §1, §2, §3, §4, §5

CYP2E1 [2] = molecular target: T2, CYP2E1; conditions: at the Cmax level in rat plasma, calculated from the dose–response curve
Experimental: as §6

[3] = at the Cmax level in rat plasma, calculated from the dose–response curve

T2 sequence (P05182 whole entry): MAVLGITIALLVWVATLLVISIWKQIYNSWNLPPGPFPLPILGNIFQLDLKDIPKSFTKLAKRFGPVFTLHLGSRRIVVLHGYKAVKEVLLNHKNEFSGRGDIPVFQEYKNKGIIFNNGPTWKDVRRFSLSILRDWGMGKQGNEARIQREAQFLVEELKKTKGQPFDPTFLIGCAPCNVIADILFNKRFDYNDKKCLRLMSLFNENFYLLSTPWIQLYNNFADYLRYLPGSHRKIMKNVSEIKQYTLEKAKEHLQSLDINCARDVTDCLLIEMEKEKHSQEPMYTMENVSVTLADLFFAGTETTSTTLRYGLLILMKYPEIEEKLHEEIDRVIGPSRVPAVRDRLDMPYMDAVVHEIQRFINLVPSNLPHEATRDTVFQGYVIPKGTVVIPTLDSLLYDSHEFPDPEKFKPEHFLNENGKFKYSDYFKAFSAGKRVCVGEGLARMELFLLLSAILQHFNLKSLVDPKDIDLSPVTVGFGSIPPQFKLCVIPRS

Work on `CC(C)=CCC[C@](C)(O[C@@H]1O[C@H](CO)[C@@H](O)[C@H](O)[C@H]1O)[C@H]1CC[C@]2(C)[C@@H]1[C@H](O)C[C@@H]1[C@@]3(C)CC[C@H](O[C@@H]4O[C@H](CO)[C@@H](O)[C@H](O)[C@H]4O[C@@H]4O[C@H](CO)[C@@H](O)[C@H](O)[C@H]4O)C(C)(C)[C@@H]3CC[C@]12C` [GRd, ginsenoside Rd] yielded a concentration at […] (in vivo; 0.083 h after oral CNP) of 6.63 ± 0.64 ng/mL, a concentration at 0.25 h (in vivo; 0.25 h after oral CNP) of 7.13 ± 0.69 ng/mL and a concentration at 0.5 h (in vivo; 0.5 h after oral CNP) of 12.5 ± 4.73 ng/mL. It also gave a concentration at 1 h (in vivo; 1 h after oral CNP) of 13.5 ± 3.67 ng/mL, a concentration at 1.5 h (in vivo; 1.5 h after oral CNP) of 12.8 ± 1.79 ng/mL and a concentration at 2 h (in vivo; 2 h after oral CNP) of 17.6 ± 5.2 ng/mL. It also gave a concentration at 3 h (in vivo; 3 h after oral CNP) of 18.7 ± 7.48 ng/mL, a concentration at 4 h (in vivo; 4 h after oral CNP) of 25 ± 15.8 ng/mL and a concentration at 6 h (in vivo; 6 h after oral CNP) of 24.9 ± 13.1 ng/mL. The concentration at 8 h (in vivo; 8 h after oral CNP) was 15.6 ± 5.29 ng/mL, the concentration at 12 h (in vivo; 12 h after oral CNP) was 12.4 ± 7.03 ng/mL and the concentration at 24 h (in vivo; 24 h after oral CNP) was 2.85 ± 0.67 ng/mL. For the same compound, the concentration at 48 h (in vivo; 48 h after oral CNP) was 3.96 ± 0.34 ng/mL, the concentration at 72 h (in vivo; 72 h after oral CNP) was 2.32 ± 0.12 ng/mL and the AUC(0-inf) (in vivo; po, 60 mg/kg) was 619 ± 157 ng·h/mL. It also gave an AUC(0-t) (in vivo; po, 60 mg/kg) of 461 ± 117 ng·h/mL, a Cmax (in vivo; po, 60 mg/kg) of 29.4 ± 10.7 ng/mL and a Tmax (in vivo; po, 60 mg/kg) of 4.5 ± 1.76 h. The half-life (in vivo; po, 60 mg/kg) was 42.8 ± 8.84 h, the concentration at 0.25 h (in vivo; po, 60 mg·kg^−1) was 9 ± 2.12 ng/mL and the concentration at 0.5 h (in vivo; po, 60 mg·kg^−1) was 11.5 ± 0.97 ng/mL. The concentration at 1 h (in vivo; po, 60 mg·kg^−1) was 13.9 ± 4.94 ng/mL, the concentration at 1.5 h (in vivo; po, 60 mg·kg^−1) was 14.9 ± 3.51 ng/mL and the concentration at 2 h (in vivo; po, 60 mg·kg^−1) was 19.2 ± 6.71 ng/mL. The concentration at 3 h (in vivo; po, 60 mg·kg^−1) was 22.3 ± 14.6 ng/mL, the concentration at 4 h (in vivo; po, 60 mg·kg^−1) was 23.9 ± 12.6 ng/mL and the concentration at 6 h (in vivo; po, 60 mg·kg^−1) was 26.2 ± 10.4 ng/mL. It also gave a concentration at 8 h (in vivo; po, 60 mg·kg^−1) of 16.7 ± 7.24 ng/mL, a concentration at 12 h (in vivo; po, 60 mg·kg^−1) of 8.73 ± 3.74 ng/mL and a concentration at 24 h (in vivo; po, 60 mg·kg^−1) of 3.57 ± 1.4 ng/mL. For the same compound, the concentration at 48 h (in vivo; po, 60 mg·kg^−1) was 4.15 ± 1.97 ng/mL, the concentration at 72 h (in vivo; po, 60 mg·kg^−1) was 2.52 ± 0.63 ng/mL and the IC50 (CYP1A2; IC50 CYP1A2, single components, RLM 0.2 mg/mL, 15 min, triplicate, mean ± SD) was 4.36 ± 2.31 µM. For the same compound, the “Response (% control) CYP1A2” value (CYP1A2; [3]) was 71.33 % control, the IC50 (CYP2E1 [1]) was 43.46 ± 0.06 µM and the IC50 at 15 min (CYP2C19; Sprague-Dawley, rat, pooled rat liver microsomes, pH 7.4, probe omeprazole (1.07 µM, in seven-probe cocktail), IC50 CYP2C19, single components, RLM 0.2 mg/mL, 15 min, triplicate, mean ± SD) was 71.4 ± 14.3 µM. The “Response (% control) CYP2C19” value (CYP2C19; [3]) was 99.95 % control, the IC50 at 15 min (CYP2C9; Sprague-Dawley, rat, pooled rat liver microsomes, pH 7.4, probe tolbutamide (18 µM, in seven-probe cocktail), IC50 CYP2C9, single components, RLM 0.2 mg/mL, 15 min, triplicate, mean ± SD) was 73 ± 3.71 µM and the “Response (% control) CYP2C9” value (CYP2C9; [3]) was 99.97 % control. The IC50 at 15 min (CYP2B6) was greater than 200 µM, the “Response (% control) CYP3A4” value (CYP3A4; 15 min) was 85.25 % control and the IC50 at 15 min (CYP3A4; microsomes) was 61.4 ± 14.3 µM. For the same compound, the “Response (% control) CYP2D6” value (CYP2D6; 15 min, pH 7.4) was 99.99 % control, the IC50 at 15 min (CYP2D6; microsomes, pH 7.4, IC50 CYP2D6) was 64.8 ± 11.7 µM and the “Response (% control) CYP2E1” value (CYP2E1 [2]) was 98.16 % control.
